Experimental data published in patent US20030198617A1, “Pharmaceutical tryptophan containing dipeptide compositions and methods of use thereof” (priority 1993, published 2003).
Where two headings read alike, the source gives them in different places. Marks after values point to notes of the source that are not given here.

Assays:
Assay type in all cases: in vivo, human
[1] = Acute radiation sickness, 6 months after accident, blood parameters; conditions: after therapy with IM862
Procedure: The patients described above in Example 47 were tested for blood parameters after 6 months of treatment immediately following exposure to the radiation caused by the Chernobyl accident.

[2] = Infected patients (Example 96); conditions: IM862 100 μg 5-10 days, 36 patients
Text: A total of 36 patients infected and 24 patients infected were controls.

[3] = Psoriasis study (Example 108); conditions: during treatment
Procedure: A comparative study of immunological, coagulation, and acute phase protein parameters was conducted on 30 patients with disseminated forms of psoriasis on normal treatment. Twenty-seven patients had widespread lesions of the smooth skin and scalp; two had psoriatic erythroderma. The period of illness in the majority of those examined exceeded 5 years. In two persons the nail plates were involved in the form of a “thimble” symptom.
Patients were treated under identical conditions and received therapy of vitamins B12, B6, and A, folic acid, pyrogens, sedatives, and desensitizing preparations. Salidol ointment and 3-5% sulfur-salicylic ointments were used locally.
Basic immunological and coagulation assays were conducted on all patients. The findings obtained were compared with the results of investigations done on healthy people between the ages of 18-40 years. […] At the same time, a drop is noted in the quantity of T-lymphocytes, a decrease in the level of T-helpers and suppressors, and a growth in the concentrations of IgA, M, and to a lesser degree, IgG.

[4] = Prolonged IM862 therapy trials in irradiated patients, blood parameters
Text: The group of patients described in Example 42 were further treated for a period of […] and tested again subsequent to the first stage of therapy (after 4 months) and after the second stage of therapy (6 months).

[5] = system: ARD and influenza
[6] = Radiation injury patients (Example 67); conditions: IM862 100 μg 10 days, 263 patients
Text: A total of 263 patients and 18 control patients sustained exposure to radiation injury. […] A repeated course may be proscribed on the basis of immunological indices, and averages every 4 to 6 months. […] There was an arresting of asthenic syndrome, and an arresting of the somatic pathological exacerbations and reduction of opportunistic infections.

[7] = Post-term women; conditions: IM862 IM or intranasally over 3-5 days, 19 women
Procedure: A total of 19 post-term women and 48 women post-term in the control study were treated.

[8] = Cancer patients after radiation and chemo-therapy; conditions: IM862 100 μg daily 10 days, 246 patients
Text: If it vas determined necessary based on immunological indices, the treatment regimen was repeated in 4-6 months.

[9] = after the 1st stage of IM862 use
[10] = after the 2nd state of IM862 use

**Q.** What does the source list for Glu-Trp [IM862]?
**A.** B-Ig+, % [1]: 19.0 ± 1.3 %; B-Ig+, abs [1]: 0.29 ± 0.03 10^9/liter; B-IgA+, % [1]: 1.8 ± 0.3%; B-IgA+, abs [1]: 0.030 ± 0.002 10^9/liter; B-IgG+, % [1]: 6.4 ± 0.5 %; B-IgG+, abs [1]: 0.100 ± 0.007 10^9/liter; B-IgM+, % [1]: 8.8 ± 0.7%; B-IgM+, abs [1]: 0.13 ± 0.02 10^9/liter; CD2, % [1]: 49 ± 3 %; CD3, % [1]: 53.4 ± 1.8 %; CD3, abs [1]: 0.82 ± 0.04** 10^9/liter; CD4, % [1]: 32.6 ± 1.4 %; CD4, abs [1]: 0.50 ± 0.04* 10^9/liter; CD19, % [1]: 26.7 ± 2.1%; CD19, abs [1]: 0.041 ± 0.03** 10^9/liter; CDS, % [1]: 21.2 ± 1.8%; CDS, abs [1]: 0.32 ± 0.03 10^9/liter; IgA [1]: 1.8 ± 0.9 g/L; IgG [1]: 10.9 ± 1.1 g/L; IgM [1]: 1.07 ± 0.09 g/L; LMI [1]: 72.7 ± 4.5; Lymphocytes % [1]: 30.0 ± 1.8%; Lymphocytes, abs [1]: 1.52 ± 0.12* 10^9/liter; T4/T8 [1]: 1.54 ± 0.11; clinical effect [2]: reduction of fever; clinical status and immunological parameters [3]: improvement in clinical status and normalization of immunological parameters; CD2-DR+, % [4, 9]: 22.3 ± 0.5%; CD2-DR+, abs [4, 9]: 0.34 ± 0.05* 10^9/l; CD3, % [4, 9]: 35 ± 4 %; CD3, abs [4, 9]: 0.49 ± 0.06* 10^9/l; CD4, % [4, 9]: 19.5 ± 1.7 %; CD4, abs [4, 9]: 0.28 ± 0.03* 10^9/l; CD8, % [4, 9]: 15.4 ± 2.3%; CD8, abs [4, 9]: 0.23 ± 0.03 10^9/l; CD19, % [4, 9]: 15.0 ± 2.8%; CD19, abs [4, 9]: 0.21 ± 0.06 10^9/l; Leukocytes, abs [4, 9]: 4.7 ± 0.2* 10^9/l; Lymphocytes, abs [4, 9]: 1.5 ± 0.4 10^9/l; CD2-DR+, % [4, 10]: 29 ± 3 %; CD2-DR+, abs [4, 10]: 0.56 ± 0.08* 10^9/l; CD3, % [4, 10]: 46 ± 3 %; CD3, abs [4, 10]: 0.89 ± 0.11* 10^9/l; CD4, % [4, 10]: 24.1 ± 1.5 %; CD4, abs [4, 10]: 0.45 ± 0.04* 10^9/l; CD8, % [4, 10]: 22.3 ± 2.2 %; CD8, abs [4, 10]: 0.40 ± 0.05* 10^9/l; CD19, % [4, 10]: 21.1 ± 2.1 %; CD19, abs [4, 10]: 0.39 ± 0.06* 10^9/l; Leukocytes, abs [4, 10]: 5.5 ± 0.3* 10^9/l; Lymphocytes, abs [4, 10]: 1.9 ± 0.5* 10^9/l; Average term of hospitalization ([5]; 1st month): 6.2 days; Need in hospitalization, % ([5]; 1st month): 27.0%; Number of temporary disablement cases/100 persons/month ([5]; 1st month): 3.8 cases/100 persons/month; Number of temporary disablement days/100 persons/month ([5]; 1st month): 24.0 days/100 persons/month; Sickness rate/100 persons/month ([5]; 1st month): 9.6 /100 persons/month; Average term of hospitalization ([5]; 2nd month): 6.2 days; Need in hospitalization, % ([5]; 2nd month): 27.1%; Number of temporary disablement cases/100 persons/month ([5]; 2nd month): 7.3 cases/100 persons/month; Number of temporary disablement days/100 persons/month ([5]; 2nd month): 48.6 days/100 persons/month; Sickness rate/100 persons/month ([5]; 2nd month): 11.3 /100 persons/month; Average term of hospitalization ([5]; 3rd month): 6.2 days; Need in hospitalization, % ([5]; 3rd month): 28.3%; Number of temporary disablement cases/100 persons/month ([5]; 3rd month): 3.4 cases/100 persons/month; Number of temporary disablement days/100 persons/month ([5]; 3rd month): 14.3 days/100 persons/month; Sickness rate/100 persons/month ([5]; 3rd month): 9.4 /100 persons/month; Average term of hospitalization ([5]; 4th month): 7.0 days; Need in hospitalization, % ([5]; 4th month): 28.3%; Number of temporary disablement cases/100 persons/month ([5]; 4th month): 3.6 cases/100 persons/month; Number of temporary disablement days/100 persons/month ([5]; 4th month): 26.3 days/100 persons/month; Sickness rate/100 persons/month ([5]; 4th month): 11.0 /100 persons/month; Average term of hospitalization ([5]; IM862 group): 6.2 days; Need in hospitalization ([5]; IM862 group): 30.6; Number of temporary disablement cases/100 persons/month ([5]; IM862 group): 4.1 cases/100 persons/month; Number of temporary disablement days/100 persons/month ([5]; IM862 group): 26.5 days/100 persons/month; Pneumonia rate/100 persons/month ([5]; IM862 group): 0.20 /100 persons/month; Rate of lingering and complicated cases, % ([5]; IM862 group): 3.9%; Sickness rate per 100 persons/month ([5]; IM862 group): 9.8 per 100 persons/month; The same index in-patients, % ([5]; IM862 group, lingering and complicated cases): 9.8%; Index of efficiency: Average term of hospitalization ([5]; IM862 vs control): 1.4; Index of efficiency: Need in hospitalization ([5]; IM862 vs control): 1.7; Index of efficiency: Pneumonia rate ([5]; IM862 vs control): 2.5; Index of efficiency: Rate of lingering and complicated cases ([5]; IM862 vs control): 3.5; Index of efficiency: Sickness rate ([5]; IM862 vs control): 3.1; Index of efficiency: The same index in-patients ([5]; IM862 vs control): 2.7; Index of efficiency: temporary disablement cases ([5]; IM862 vs control): 1.7; Index of efficiency: temporary disablement days ([5]; IM862 vs control): 2.2; clinical effect [6]: restoration of normal or near normal immune indices; clinical effect [7]: effacement of the cervix; clinical effect [8]: normalization of immunological indices
